In ChEMBL document CHEMBL1201862, “PubChem BioAssay data set” (2004) one finds AC50, IC50 and EC50 data, which are given here for 5 compounds.

SMILES strings stand for the structures. The source made the active and inactive calls.

One assay concerns HEK293. As to the kind of experiment: EBV LMP1 TES2 canonical NF-kB signalling blockers – cell-based, HEK293, luciferase, cherry-pick, dose response (AID 588343). Type of assay: functional. As to conditions: Homo sapiens.
The next assay concerns the target Nonstructural protein 1 (Influenza A virus, UniProt Q194T2). Format: functional, Influenza A virus (A/California/07/2009(H1N1)).
The nature of assay [1]: Luminescence Cell-Based Dose Response HTS to Identify Inhibitors of 5'UTR Stem-Loop Driven Prion Protein mRNA Translation in H4 Neuroglioblastoma Cells. [Related pubchem assays: 1827 (Project Summary), 1813 (Primary HTS)]. Type of assay: functional.
The nature of assay [2]: cells. Format: functional, cell-based.
In assay [3] the target is Heat shock protein HSP 90-alpha (Homo sapiens, UniProt P07900). Format: functional, organism-based.
Assay [4] has as its target T1, Heat shock factor protein 1 (Mus musculus, UniProt P38532).
T1 sequence (P38532 whole entry): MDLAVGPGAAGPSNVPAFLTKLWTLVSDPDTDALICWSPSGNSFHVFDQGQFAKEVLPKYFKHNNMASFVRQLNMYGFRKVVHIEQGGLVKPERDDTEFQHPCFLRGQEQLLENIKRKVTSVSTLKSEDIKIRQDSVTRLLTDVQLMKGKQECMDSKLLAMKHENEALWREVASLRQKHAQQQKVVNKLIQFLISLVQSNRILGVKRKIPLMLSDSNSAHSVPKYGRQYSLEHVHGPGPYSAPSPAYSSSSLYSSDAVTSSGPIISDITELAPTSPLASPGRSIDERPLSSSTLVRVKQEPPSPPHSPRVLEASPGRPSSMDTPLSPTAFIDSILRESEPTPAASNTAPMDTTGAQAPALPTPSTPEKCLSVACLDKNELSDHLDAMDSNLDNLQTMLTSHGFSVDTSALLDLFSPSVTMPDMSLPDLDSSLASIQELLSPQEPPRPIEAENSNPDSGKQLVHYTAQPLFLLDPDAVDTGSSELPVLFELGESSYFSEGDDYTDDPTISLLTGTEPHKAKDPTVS
As to the kind of experiment: decrease of HSF1-responsive luciferase luminescence – cell-based, NIH3T3, dose retest, confirmation (AID 2382).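 Further: NIH3T3 fibroblasts with HSF1-driven luciferase reporter stressed by proteasome inhibitor MG132; luminescence from HSF1-driven luciferase expression after 8 hours of MG132 stress.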 Format: functional.

A further assay has as its target Exodeoxyribonuclease V (Escherichia coli (strain K12), UniProt P04993+P07648+P08394). As to the kind of experiment: RecBCD inhibition via phage-restricted bacterial growth – absorbance, V66 E. coli, mutant T4 phage, counter-screen for AddAB inhibitor project, dose response (AID 492957). Format: functional, cell-based, Escherichia coli str. K-12 substr. MG1655. For orientation: The purpose of a counterscreen is to sort out artefacts and off-target activity.

The test system of the next assay is INS1. As to the kind of experiment: INS-1E survival protection against cytokine death – cell-based, luminescence, retest, dose response (AID 449756).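 Further: cell death triggered by IL-1 beta plus TNF-alpha plus IFN-gamma mixture; protective hits raise ATP signal compared with cytokine alone wells.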 Format: functional. As to conditions: Rattus norvegicus.
In assay [5] the target is T2, Kappa-type opioid receptor (Homo sapiens, UniProt P41145). Type of assay: functional.
T2 sequence (P41145 whole entry): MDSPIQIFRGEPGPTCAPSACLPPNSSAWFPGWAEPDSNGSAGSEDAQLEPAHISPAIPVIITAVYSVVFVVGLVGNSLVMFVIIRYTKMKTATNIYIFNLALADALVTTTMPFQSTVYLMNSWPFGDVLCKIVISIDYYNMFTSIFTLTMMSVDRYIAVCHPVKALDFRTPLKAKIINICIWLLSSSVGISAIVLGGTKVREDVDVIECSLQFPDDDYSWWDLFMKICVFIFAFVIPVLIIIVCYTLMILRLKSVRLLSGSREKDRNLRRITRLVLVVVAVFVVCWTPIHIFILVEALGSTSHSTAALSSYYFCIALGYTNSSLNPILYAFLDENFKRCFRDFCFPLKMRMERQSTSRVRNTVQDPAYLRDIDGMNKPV
A short description of assay [6]: luciferase reporter signal suppression in cells – H4 neuroglioma cells, luminescence, dose response (AID 1990). Format: functional, cell-based. On the technique in general: Reporter assays use an easily measured gene product as a stand-in for the process of interest.
Assay [7] is described as follows: cells. Format: functional, cell-based. The source holds these as a separate data set.
The next assay addresses Beta-galactosidase (Escherichia coli, UniProt Q8VNN2). Type of assay: functional.
Assay [8] can be described thus: alpha-synuclein stem-loop luciferase translation blockers – H4 neuroglioma cells, luminescence, confirmation (AID 1988). Type of assay: functional, cell-based.
A short description of assay [9]: Trypanosoma cruzi growth suppression in host cells – NIH3T3 host cells, beta-gal luminescence, confirmation (AID 2044).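 Further: intracellular parasites grown in NIH/3T3 mouse fibroblasts as host cells; luminescent beta-galactosidase reporter signal from transgenic T. cruzi replicating inside host cells; inhibitors lower the luminescence signal.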 Type of assay: functional, cell-based.
Assay [10] deals with T2, Kappa-type opioid receptor. Type of assay: functional. The source holds these as a separate data set.
The nature of assay [11]: Counterscreen for AddAB inhibitors: absorbance-based bacterial cell-based high throughput dose response assay for inhibitors of bacterial viability. [Related pubchem assays (depositor defined):AID435030, AID449728, AID449731, AID488942, AID488955, AID488956]. Format: functional.
Assay [12] is described as follows: HEK-293T viability loss after treatment – luminescence, T-cell screen hits, cytotoxicity control for TCR NF-kB inhibitor project, dose response (AID 489026).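 Further: cells exposed to compound about 14 hours before the viability readout.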 Format: functional, cell-based.
Assay [13] is described as follows: NIH3T3 cell viability loss – ATP luminescence, mouse fibroblasts, counter-screen, dose response (AID 2010).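 Further: cells exposed to compound for about 90 hours before reading.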 Type of assay: functional, cell-based.
The target of assay [14] is Peroxisome proliferator-activated receptor gamma/Nuclear receptor coactivator 3 (Homo sapiens, UniProt P37231). Description: TR-FRET dose response biochemical High Throughput Screening assay for agonists of the steroid receptor coactivator 3 (SRC-3) recruitment by the peroxisome proliferator-activated receptor gamma (PPAR gamma): non-selective agonists. [Related pubchem assays: 1301 (Confirmation screen.), 1048 (Primary screen.)]. Type of assay: functional. In general terms: TR-FRET usually uses a lanthanide donor and a delayed reading to cut background.

For assay [15], the target named is Peroxisome proliferator-activated receptor gamma/Nuclear receptor coactivator 1 (Homo sapiens, UniProt P37231). Description: TR-FRET dose response biochemical High Throughput Screening assay for agonists of the steroid receptor coactivator 1 (SRC-1) recruitment by the peroxisome proliferator-activated receptor gamma (PPAR gamma): non-selective agonists. [Related pubchem assays (depositor defined):AID1300, AID1808, AID504735, AID631]. Format: protein assay.

The target in assay [16] is Peroxisome proliferator-activated receptor gamma/Nuclear receptor coactivator 2 (Homo sapiens, UniProt P37231). As to the kind of experiment: TR-FRET dose response biochemical High Throughput Screening assay for agonists of the steroid receptor coactivator 2 (SRC-2) recruitment by the peroxisome proliferator-activated receptor gamma (PPAR gamma): non-selective agonists. [Related pubchem assays: 1297, 1032 ]. Format: functional.

The nature of assay [17]: cells. Type of assay: functional.
In assay [18] the target is T3, Intestinal-type alkaline phosphatase (Homo sapiens, UniProt P09923). Description: human intestinal alkaline phosphatase activators, dose response, biochemical, luminescence, uHTS hits (AID 463120). Format: functional.
T3 sequence (P09923 whole entry): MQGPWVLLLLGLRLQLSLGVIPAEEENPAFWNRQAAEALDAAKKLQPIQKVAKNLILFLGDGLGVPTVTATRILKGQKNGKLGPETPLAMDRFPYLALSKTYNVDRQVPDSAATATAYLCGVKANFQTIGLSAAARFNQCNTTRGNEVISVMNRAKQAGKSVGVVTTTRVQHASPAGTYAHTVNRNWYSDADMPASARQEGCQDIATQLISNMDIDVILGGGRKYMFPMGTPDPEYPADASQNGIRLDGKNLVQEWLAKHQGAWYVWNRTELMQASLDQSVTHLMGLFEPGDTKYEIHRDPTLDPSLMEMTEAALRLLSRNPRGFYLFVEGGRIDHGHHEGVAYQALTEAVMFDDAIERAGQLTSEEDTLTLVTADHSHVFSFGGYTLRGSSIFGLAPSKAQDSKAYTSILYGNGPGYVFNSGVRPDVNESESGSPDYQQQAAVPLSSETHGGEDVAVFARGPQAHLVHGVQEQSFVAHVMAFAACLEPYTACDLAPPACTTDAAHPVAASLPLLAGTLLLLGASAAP
For assay [19], the target named is T3, Intestinal-type alkaline phosphatase. As to the kind of experiment: activation of human intestinal alkaline phosphatase – biochemical, luminescent, uHTS hits, set 2, dose response (AID 488817).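 Further: potency of activators that raise enzyme activity.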 Type of assay: functional.
Assay [20] concerns the target T4, Alkaline phosphatase, tissue-nonspecific isozyme (Homo sapiens, UniProt P05186).
T4 sequence (P05186 whole entry): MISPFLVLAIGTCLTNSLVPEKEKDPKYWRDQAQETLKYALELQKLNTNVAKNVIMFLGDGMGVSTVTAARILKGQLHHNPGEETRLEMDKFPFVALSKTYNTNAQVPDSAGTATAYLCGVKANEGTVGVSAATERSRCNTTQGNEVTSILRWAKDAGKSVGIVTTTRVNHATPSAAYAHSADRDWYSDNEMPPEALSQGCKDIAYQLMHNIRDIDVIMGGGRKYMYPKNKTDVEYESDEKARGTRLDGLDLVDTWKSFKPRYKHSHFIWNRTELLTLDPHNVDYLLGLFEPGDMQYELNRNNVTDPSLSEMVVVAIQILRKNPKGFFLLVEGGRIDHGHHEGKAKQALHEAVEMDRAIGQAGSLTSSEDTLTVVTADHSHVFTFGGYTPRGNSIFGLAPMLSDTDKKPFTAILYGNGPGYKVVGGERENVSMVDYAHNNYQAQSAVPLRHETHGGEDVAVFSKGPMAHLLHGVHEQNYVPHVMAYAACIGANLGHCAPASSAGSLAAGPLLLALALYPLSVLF

In assay [21] the target is T4, Alkaline phosphatase, tissue-nonspecific isozyme. Description: activation of tissue-nonspecific alkaline phosphatase – biochemical, TNAP isozyme, human IAP uHTS hits, selectivity assay for human IAP activator project, dose response (AID 488886).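 Further: potency of compounds raising TNAP activity as a selectivity check on IAP activators.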 Type of assay: functional.
For assay [22], the target named is Intestinal-type alkaline phosphatase (Mus musculus, UniProt P24822). Description: PubChem AID 488874. Type of assay: functional.
Chain of Intestinal-type alkaline phosphatase (Mus musculus, UniProt P24822) (P24822 whole entry): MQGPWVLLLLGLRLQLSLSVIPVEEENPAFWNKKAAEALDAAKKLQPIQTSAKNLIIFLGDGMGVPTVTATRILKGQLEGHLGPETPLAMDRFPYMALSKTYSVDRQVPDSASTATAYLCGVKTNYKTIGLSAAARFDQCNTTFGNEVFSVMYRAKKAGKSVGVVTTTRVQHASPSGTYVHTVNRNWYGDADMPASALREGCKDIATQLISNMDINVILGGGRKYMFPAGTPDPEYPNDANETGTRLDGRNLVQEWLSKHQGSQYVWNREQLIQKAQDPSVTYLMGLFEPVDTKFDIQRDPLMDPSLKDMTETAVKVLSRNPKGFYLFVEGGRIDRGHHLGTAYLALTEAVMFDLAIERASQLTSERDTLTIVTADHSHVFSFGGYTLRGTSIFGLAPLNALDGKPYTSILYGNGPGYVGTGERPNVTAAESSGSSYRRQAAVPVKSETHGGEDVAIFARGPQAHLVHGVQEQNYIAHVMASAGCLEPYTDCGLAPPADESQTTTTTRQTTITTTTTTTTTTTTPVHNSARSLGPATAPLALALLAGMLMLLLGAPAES
In assay [23] the target is Delta-type opioid receptor (Homo sapiens, UniProt P41143). Description: SAR Analysis of Agonists of the DOR Receptor using an Image-Based Assay - Set 3. [Related pubchem assays (depositor defined):AID1777, AID1786]. Type of assay: functional.
Chain of Delta-type opioid receptor (P41143 whole entry): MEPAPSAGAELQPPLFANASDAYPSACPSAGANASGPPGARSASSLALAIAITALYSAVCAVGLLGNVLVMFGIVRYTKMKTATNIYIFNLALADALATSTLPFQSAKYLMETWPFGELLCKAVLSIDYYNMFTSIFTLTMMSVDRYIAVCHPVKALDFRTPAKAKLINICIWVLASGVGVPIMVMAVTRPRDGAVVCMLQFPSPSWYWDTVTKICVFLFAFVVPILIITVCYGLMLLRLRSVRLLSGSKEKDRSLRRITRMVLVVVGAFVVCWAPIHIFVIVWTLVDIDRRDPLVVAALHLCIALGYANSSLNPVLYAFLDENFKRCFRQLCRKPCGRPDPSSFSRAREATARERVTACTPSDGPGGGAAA
Assay [24] addresses T2, Kappa-type opioid receptor. As to the kind of experiment: SAR analysis of small molecule agonists of the kappa opioid receptor via a luminescent beta-arrestin assay - Set 3. [Related pubchem assays (depositor defined):AID1777, AID1785, AID1786, AID1966, AID2133, AID2136, AID2284, AID2500]. Type of assay: functional.
The next assay deals with Mu-type opioid receptor (Homo sapiens, UniProt P35372). Description: SAR Analysis of Agonists of the MOR Receptor using an Image-Based Assay - Set 3. [Related pubchem assays (depositor defined):AID1777, AID1785, AID1786, AID1966, AID2133, AID2136, AID2284, AID2285, AID2352]. Type of assay: functional.
Chain of Mu-type opioid receptor (P35372 whole entry): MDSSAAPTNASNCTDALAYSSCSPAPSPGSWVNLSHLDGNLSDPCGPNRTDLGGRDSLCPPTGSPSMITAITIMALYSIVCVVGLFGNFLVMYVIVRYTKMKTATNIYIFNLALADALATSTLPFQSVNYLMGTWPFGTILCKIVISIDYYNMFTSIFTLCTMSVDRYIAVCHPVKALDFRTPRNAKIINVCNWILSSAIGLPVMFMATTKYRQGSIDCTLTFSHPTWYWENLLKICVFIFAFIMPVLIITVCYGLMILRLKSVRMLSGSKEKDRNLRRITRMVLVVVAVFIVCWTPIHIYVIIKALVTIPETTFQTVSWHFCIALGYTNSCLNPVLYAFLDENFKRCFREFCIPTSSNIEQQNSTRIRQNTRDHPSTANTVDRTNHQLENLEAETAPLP
The target of assay [25] is T2, Kappa-type opioid receptor. Description: kappa opioid receptor activation by imaging – image-based, set 3, SAR follow-up (AID 488833). Type of assay: functional.
The target of assay [26] is Sphingosine 1-phosphate receptor 4 (Homo sapiens, UniProt O95977). As to the kind of experiment: Fluorescence dose response cell-based high throughput screening assay for agonists of the Sphingosine 1-Phosphate Receptor 4 (S1P4). [Related pubchem assays: 1509 (Primary screen.), 1523 (Confirmation screen in triplicates.)]. Type of assay: functional.
Chain of Sphingosine 1-phosphate receptor 4 (O95977 whole entry): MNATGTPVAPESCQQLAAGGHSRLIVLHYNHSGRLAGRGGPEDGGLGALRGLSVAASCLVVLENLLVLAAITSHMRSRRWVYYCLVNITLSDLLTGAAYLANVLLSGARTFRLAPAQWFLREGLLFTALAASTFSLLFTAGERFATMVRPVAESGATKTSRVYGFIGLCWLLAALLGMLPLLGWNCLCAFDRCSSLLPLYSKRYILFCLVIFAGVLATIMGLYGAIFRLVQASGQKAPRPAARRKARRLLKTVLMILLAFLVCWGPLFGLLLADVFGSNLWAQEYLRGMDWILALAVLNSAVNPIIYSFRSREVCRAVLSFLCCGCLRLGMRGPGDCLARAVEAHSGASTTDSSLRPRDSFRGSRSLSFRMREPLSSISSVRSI
The target of assay [27] is Sphingosine 1-phosphate receptor 1 (Homo sapiens, UniProt P21453). Description: Fluorescence-based counterscreen assay for S1P4 agonists: Cell-based dose response high throughput screening assay to identify agonists of the Sphingosine 1-Phosphate Receptor 1 (S1P1). [Related pubchem assays (depositor defined):AID1509, AID1523, AID1801, AID463107, AID463118, AID463119, AID463122, AID463123, AID463129, AID463225, AID504400, AID504460]. Type of assay: functional.
Chain of Sphingosine 1-phosphate receptor 1 (P21453 whole entry): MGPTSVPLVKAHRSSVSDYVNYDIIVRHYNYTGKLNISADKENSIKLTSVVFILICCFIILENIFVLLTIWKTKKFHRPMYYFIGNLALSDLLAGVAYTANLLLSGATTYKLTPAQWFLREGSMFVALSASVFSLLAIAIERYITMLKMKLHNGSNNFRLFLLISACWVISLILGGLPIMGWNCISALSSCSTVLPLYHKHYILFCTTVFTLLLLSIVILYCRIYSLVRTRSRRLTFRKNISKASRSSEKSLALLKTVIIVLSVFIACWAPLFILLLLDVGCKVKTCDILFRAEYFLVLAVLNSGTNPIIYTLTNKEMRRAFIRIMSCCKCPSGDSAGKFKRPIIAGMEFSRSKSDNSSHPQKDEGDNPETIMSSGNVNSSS

The target in a further assay is Large T antigen (Simian virus 40, UniProt P03070). Type of assay: functional, Betapolyomavirus macacae.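 Further: Confirmatory-stage PubChem screen for compounds that inhibit SV40 T antigen.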
Chain of Large T antigen (P03070 whole entry): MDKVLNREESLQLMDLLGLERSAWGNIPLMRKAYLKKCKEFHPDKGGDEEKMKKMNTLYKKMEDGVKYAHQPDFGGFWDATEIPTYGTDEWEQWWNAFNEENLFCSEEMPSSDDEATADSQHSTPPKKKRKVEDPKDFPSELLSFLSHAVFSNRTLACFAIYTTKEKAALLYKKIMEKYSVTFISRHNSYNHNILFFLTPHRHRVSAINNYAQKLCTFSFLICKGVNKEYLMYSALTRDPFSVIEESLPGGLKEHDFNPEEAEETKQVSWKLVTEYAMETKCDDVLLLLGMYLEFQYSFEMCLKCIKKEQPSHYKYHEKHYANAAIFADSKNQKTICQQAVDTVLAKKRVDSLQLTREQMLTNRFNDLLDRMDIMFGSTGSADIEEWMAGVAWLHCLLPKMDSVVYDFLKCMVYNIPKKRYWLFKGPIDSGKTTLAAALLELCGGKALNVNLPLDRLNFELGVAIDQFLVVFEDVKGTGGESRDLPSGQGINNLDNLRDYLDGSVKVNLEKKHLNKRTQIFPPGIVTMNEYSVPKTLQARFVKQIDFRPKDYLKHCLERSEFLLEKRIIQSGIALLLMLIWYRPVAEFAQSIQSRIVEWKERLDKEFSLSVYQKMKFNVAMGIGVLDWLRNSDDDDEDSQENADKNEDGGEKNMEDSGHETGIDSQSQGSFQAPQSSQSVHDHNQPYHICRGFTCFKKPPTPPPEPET

Chain of Nonstructural protein 1 (Q194T2 whole entry): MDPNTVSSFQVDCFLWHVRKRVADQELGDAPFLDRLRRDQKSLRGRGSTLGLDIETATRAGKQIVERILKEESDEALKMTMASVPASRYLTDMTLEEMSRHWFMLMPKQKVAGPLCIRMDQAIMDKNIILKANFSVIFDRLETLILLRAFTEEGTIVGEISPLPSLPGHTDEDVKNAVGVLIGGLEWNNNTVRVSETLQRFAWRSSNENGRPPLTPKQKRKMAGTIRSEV
Chain of Beta-galactosidase (Q8VNN2 whole entry): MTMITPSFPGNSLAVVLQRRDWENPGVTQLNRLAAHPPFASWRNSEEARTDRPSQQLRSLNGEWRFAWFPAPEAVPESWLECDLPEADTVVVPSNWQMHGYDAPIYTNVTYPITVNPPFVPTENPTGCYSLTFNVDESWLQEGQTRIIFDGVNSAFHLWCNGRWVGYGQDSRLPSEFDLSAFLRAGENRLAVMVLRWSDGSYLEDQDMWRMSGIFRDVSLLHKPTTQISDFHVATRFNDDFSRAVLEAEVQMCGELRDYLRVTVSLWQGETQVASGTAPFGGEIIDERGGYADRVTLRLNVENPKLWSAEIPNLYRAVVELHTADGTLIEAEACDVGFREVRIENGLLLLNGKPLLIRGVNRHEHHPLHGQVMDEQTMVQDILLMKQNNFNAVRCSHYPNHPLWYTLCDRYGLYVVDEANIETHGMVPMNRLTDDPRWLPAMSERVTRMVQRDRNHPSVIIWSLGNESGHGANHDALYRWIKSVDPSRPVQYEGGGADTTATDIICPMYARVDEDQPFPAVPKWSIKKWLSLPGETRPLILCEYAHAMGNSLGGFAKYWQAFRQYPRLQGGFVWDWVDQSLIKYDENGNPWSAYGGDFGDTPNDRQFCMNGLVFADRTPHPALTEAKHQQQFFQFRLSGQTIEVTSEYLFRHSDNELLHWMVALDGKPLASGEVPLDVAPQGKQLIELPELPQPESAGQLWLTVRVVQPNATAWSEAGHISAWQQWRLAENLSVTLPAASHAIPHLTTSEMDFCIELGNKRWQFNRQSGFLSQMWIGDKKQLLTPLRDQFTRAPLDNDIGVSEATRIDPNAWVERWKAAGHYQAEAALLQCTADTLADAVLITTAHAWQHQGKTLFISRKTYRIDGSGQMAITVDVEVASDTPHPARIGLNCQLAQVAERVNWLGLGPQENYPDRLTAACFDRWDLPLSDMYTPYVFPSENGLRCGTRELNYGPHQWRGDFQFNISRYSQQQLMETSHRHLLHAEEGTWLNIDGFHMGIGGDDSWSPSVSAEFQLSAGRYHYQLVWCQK

Regarding `Oc1ccc2ccccc2c1N=Nc1ccccn1`, the AC50 in the assay with HEK293 was 7.41 µM (active); in [3] it was 2.7 µM (active); in the assay with INS1, 0.746 µM (active). Moreover, the IC50 at Nonstructural protein 1 is 13.9 µM (active); at Exodeoxyribonuclease V, > 118 µM (inactive); in [5], 5.12 µM (active); in assay [10], greater than 32 µM; in assay [11] it was > 118 µM (inactive); in [12], > 80 µM (inactive). Moreover, the concentration for a half-maximal effect (EC50) is 2.43 µM (active) in assay [1]; 41 µM (active) in “cells [2]”; 11.4 µM (active) in [4]; 10.8 µM (active) in assay [6]; 24 µM (active) in “cells [7]”; 25.7 µM (active) at Beta-galactosidase. In addition, the EC50 in assay [8] was 2.29 µM (active); in [9], 0.471 µM (active); in [13], 3.4 µM (active).

Consider `CCOc1ccc(CCNC(=O)CSc2cc(=O)n(CC)c3ccccc23)cc1OCC`, for which the values for the EC50 in assay [14], in assay [15] and in assay [16] were > 79.4 µM (not active), > 79.4 µM (inactive) and 121 µM (not active), respectively.

For the compound `C=CCN1C(=O)C2(NNc3ccccc3O2)c2ccccc21` (centres undefined), the IC50 in the assay “cells [17]” was 11.7 µM (active); in [22], 14.2 µM (active). For the same compound, the EC50 in assay [18] was 11.3 µM (active); in [19], 0.514 µM (active); in assay [20], < 0.195 µM (not active); in [21] it was 0.636 µM (active).

Consider `Fc1cccc(F)c1CSc1nnc(-c2ccccn2)n1Cc1ccco1`, for which the EC50 in assay [23] is > 64 µM (inactive); in assay [24] it was > 20 µM (inactive); at Mu-type opioid receptor, > 32 µM (inactive); in assay [25], > 32 µM (inactive).

In the case of `C/C(=N/NC(N)=S)c1cc2ccc(O)cc2oc1=O`, the figures for the concentration for a half-maximal effect (EC50) in assay [26] and in assay [27] were 11.8 µM (not active) and 93.5 µM (inactive), respectively. Besides, at Large T antigen, the IC50 was 27.7 µM (active).

In general, AC50 refers to the concentration at which the activity in the assay is half-maximal. Broadly, the IC50 is the concentration at which inhibition is half-maximal. One may read the EC50 as the concentration at which the effect is half-maximal.
